ChEMBL document CHEMBL1201862, “PubChem BioAssay data set” (2004)
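Assay format: 96-well plates, 48-hour exposure. Here, GI50 denotes the concentration required for 50% inhibition of growth.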 Activity calls are given as the source filed them. Cut-off read from the data, not from the text of the source: active = GI50 up to about 1.1 µM and inactive = higher.

How the values were obtained:
Experiment in all cases: NCI tumour cell line growth inhibition, 48 h
RPMI-8226 = tested on: RPMI-8226
SK-OV-3 = tested on: SK-OV-3
KM-20L2 = tested on: KM-20L2
DMS-114 = tested on: DMS-114
SF-539 = tested on: SF-539
SF-295 = tested on: SF-295
SNB-75 = tested on: SNB-75
HT-29 = tested on: HT-29
U-251 = tested on: U-251
NCI-H460 = tested on: NCI-H460
Malme-3M = tested on: Malme-3M
OVCAR-8 = tested on: OVCAR-8
OVCAR-5 = tested on: OVCAR-5
SK-MEL-28 = tested on: SK-MEL-28
EKVX = tested on: EKVX
KM12 = tested on: KM12
CAKI-1 = tested on: CAKI-1
XF498 = tested on: XF498
RXF 631 = tested on: RXF 631
SK-MEL-2 = tested on: SK-MEL-2
M14 = tested on: M14
HOP-92 = tested on: HOP-92
NCI-H23 = tested on: NCI-H23
A549 = tested on: A549
SNB-78 = tested on: SNB-78
UO-31 = tested on: UO-31
UACC-257 = tested on: UACC-257
LOX IMVI = tested on: LOX IMVI
786-0 = tested on: 786-0
K562 = tested on: K562
SN12C = tested on: SN12C
A498 = tested on: A498
M19-MEL = tested on: M19-MEL
SNB-19 = tested on: SNB-19
SF-268 = tested on: SF-268
DMS-273 = tested on: DMS-273
DLD-1 = tested on: DLD-1
HCC 2998 = tested on: HCC 2998
HCT-15 = tested on: HCT-15
OVCAR-4 = tested on: OVCAR-4
TK-10 = tested on: TK-10
OVCAR-3 = tested on: OVCAR-3
COLO 205 = tested on: COLO 205
SW-620 = tested on: SW-620
ACHN = tested on: ACHN
HOP-18 = tested on: HOP-18
NCI-H226 = tested on: NCI-H226
UACC-62 = tested on: UACC-62
HOP-62 = tested on: HOP-62
SK-MEL-5 = tested on: SK-MEL-5
CCRF-CEM = tested on: CCRF-CEM
HCT-116 = tested on: HCT-116
IGROV-1 = tested on: IGROV-1

## S=c1[nH]c2ccc(Br)cc2c(=S)n1-c1ccccc1
RPMI-8226
  GI50: 8.26 µM (inactive)
SK-OV-3
  GI50: 43.4 µM (inactive)
KM-20L2
  GI50: 35.2 µM (inactive)
DMS-114
  GI50: 16.9 µM (inactive)
SF-539
  GI50: 14.8 µM (inactive)
SF-295
  GI50: 16.9 µM (inactive)
SNB-75
  GI50: 34.2 µM (inactive)
HT-29
  GI50: 21.9 µM (inactive)
U-251
  GI50: 6.58 µM (inactive)
NCI-H460
  GI50: 12.6 µM (inactive)
Malme-3M
  GI50: 17.5 µM (inactive)
OVCAR-8
  GI50: 30.5 µM (inactive)
OVCAR-5
  GI50: 32.5 µM (inactive)
SK-MEL-28
  GI50: 9.89 µM (inactive)
EKVX
  GI50: 37.2 µM (inactive)
KM12
  GI50: 16.9 µM (inactive)
CAKI-1
  GI50: 29.2 µM (inactive)
XF498
  GI50: 19.1 µM (inactive)
RXF 631
  GI50: 26 µM (inactive)
SK-MEL-2
  GI50: 16.4 µM (inactive)
M14
  GI50: 20.7 µM (inactive)
HOP-92
  GI50: 20 µM (inactive)
NCI-H23
  GI50: 10.7 µM (inactive)
A549
  GI50: 26.7 µM (inactive)
SNB-78
  GI50: 49.3 µM (inactive)
UO-31
  GI50: 16.4 µM (inactive)
UACC-257
  GI50: 16.4 µM (inactive)
LOX IMVI
  GI50: 19.2 µM (inactive)
786-0
  GI50: 24.5 µM (inactive)
K562
  GI50: 29.2 µM (inactive)
SN12C
  GI50: 20.6 µM (inactive)
A498
  GI50: 32.4 µM (inactive)
M19-MEL
  GI50: 17.6 µM (inactive)
SNB-19
  GI50: 5.85 µM (inactive)
SF-268
  GI50: 11 µM (inactive)
DMS-273
  GI50: 17.1 µM (inactive)
DLD-1
  GI50: 28.7 µM (inactive)
HCC 2998
  GI50: 13.7 µM (inactive)
HCT-15
  GI50: 16.1 µM
OVCAR-4
  GI50: 28.7 µM (inactive)
TK-10
  GI50: 42.4 µM (inactive)
OVCAR-3
  GI50: 20.7 µM (inactive)
COLO 205
  GI50: 22.2 µM (inactive)
SW-620
  GI50: 32.7 µM (inactive)
ACHN
  GI50: 20.3 µM (inactive)
HOP-18
  GI50: 16.5 µM (inactive)
NCI-H226
  GI50: 24.5 µM (inactive)
UACC-62
  GI50: 10.5 µM (inactive)
HOP-62
  GI50: 24.4 µM (inactive)
SK-MEL-5
  GI50: 16.4 µM (inactive)
CCRF-CEM
  GI50: 11.8 µM (inactive)
HCT-116
  GI50: 8.75 µM (inactive)
IGROV-1
  GI50: 20.6 µM (inactive)
